Data from US7879872B2, “Compositions comprising multiple bioactive agents, and methods of using the same” (Affinium Pharmaceuticals, Inc., priority 2003, dated 2011).
“And” between values parts separate entries of the source, which are not always exact repeats. Equal values may be shown once.

Legend:
S. aureus 29213 = test: checkerboard combination study (FIC index); assay type: cell-based, Staphylococcus aureus; design: key: FIC index = average of FICA+FICB (MIC combo/MIC alone)
Description: (§1) The combination experiments were performed and the results were interpreted using the checkerboard method as described in Eliopoulous, G. M., and R. C. Moellering, 1996, Antimicrobial combinations, p. 330-396, In V. Lorian (ed.), Antibiotics in laboratory medicine, 4th ed., The Williams & Wilkins Co., Baltimore, Md., in 96-well microtiter plates. Compound A was serially diluted along the x-axis of the test plate to a final volume of 50 μl, and compound B was serially diluted in a separate transfer plate. Dilutions in both plates were made in CAMHB (cation-adjusted Mueller Hinton broth) for Staphylococci and in CAMHB+5% sheep blood for Streptococci. Aliquots (50 μl) of Compound B were transferred to the test plate along the y-axis thereby achieving a checkerboard matrix of antimicrobial combinations (100 μl total volume) as in FIG. 4. The first column and last row (shaded in FIG. 4) contained only compound B or compound A, respectively. Plates were then inoculated with 10 μl of the test microorganism and MICs were determined according to NCCLS guidelines (see National Committee for Clinical Laboratory Standards, 2000, Methods for Dilution Antimicrobial Susceptibility Tests for Bacteria That Grow Aerobically—Fifth Edition, Approved Standard M7-A5, NCCLS, Wayne, Pa., USA.)
(§2) Data analysis was performed as follows and according to Eliopoulous, G. M., and R. C. Moellering, 1996, Antimicrobial combinations, p. 330-396, In V. Lorian (ed.), Antibiotics in laboratory medicine, 4th ed., The Williams & Wilkins Co., Baltimore, Md. First individual FIC values for each combination in a plate were calculated: FIC(Fractional Inhibitory Concentration)=FICA+FICB • FICA=MICA+B/MICA i.e. the MIC of combination of compound A+compound B divided by the MIC of compound A alone. • FICB=MICB+A/MICB i.e. the MIC of combination of compound B+compound A divided by the MIC of compound B alone.
(§3) FIC values were calculated only for combinations that enabled determination of a true MIC (e.g. not > or <=values). FIC indexes were then calculated as the average of individual FIC values for each combination plate.

S. aureus 43300 = test: checkerboard combination study (FIC index); assay type: cell-based, Staphylococcus aureus; design: key: FIC index = average of FICA+FICB (MIC combo/MIC alone); details: S. aureus 43300 (MRSA)
Description: as §1, §2, §3

S. pyogenes SPY_20015 = test: checkerboard combination, clinical bacterial isolates (FIC); assay type: cell-based; details: compound G with Gatifloxacin
Description: as §1, §2, §3

S. pyogenes SPY_20061 = test: as above; assay type: cell-based; details: S. pyogenes SPY_20061 (EryS)
Description: as §1, §2, §3

S. pneumoniae 22257 = test: Combination Time-kill kinetics; assay type: cell-based; details: alone or with Azithromycin 4 × MIC (0.12 ug/ml) or Cefuroxime 4 × MIC (8 ug/ml)
Description: (§4) As used herein, “synergy” refers to the in vitro effect of administration of a combination of an antibacterial agent such as a Fab I inhibiter, and antiinfective agent such that (1) the fractional inhibitory concentration (FIC) is less than or equal to 0.5 in an FIC assay described herein; or (2) there is at least a 100-fold (2 log10) increase in killing at 24 hours for the combination as compared with the bioactive agent alone in a time kill curve assay as described herein. An FIC of ≦0.5 is evidence of synergy. An additive response has an FIC value of >0.5 and less than or equal to 1, while an indifferent response has an FIC value of >1 and ≦2. An additive effect may still indicate that the combination of bioactive agent and cationic peptide are therapeutically useful.

E. faecalis A6221420 = test: Combination Time-kill kinetics; assay type: cell-based; details: alone or with Meropenem 4 × MIC (16 ug/ml)
Description: as §4

S. pneumoniae 22425 = test: Combination Time-kill kinetics; assay type: cell-based; details: alone or with Gatifloxacin 4 × MIC (2 ug/ml)
Description: as §4

[1] = tested on: major pathogenic species tested; test: Checkerboard combination studies of compound G and commercial antibiotics (FIG. 7); assay type: cell-based; details: all major pathogenic species tested
Description: Checkerboard experiments were performed and analyzed according to standard procedures as outlined below.

[2] = tested on: S. pneumoniae 22425, a penicillin and macrolide resistant clinical isolate; test: Combination time-kill studies; assay type: cell-based; details: compound alone at both 0.03 μg/ml and 1 μg/ml; S. pneumoniae 22425; FIG. 8
Description: Combination time-kill studies were performed as follows. Bacterial inocula were prepared as for MIC determination according to CLSI guidelines. Log phase cells (˜10^6 CFU/ml) were inoculated into 24 well plates and incubated with the indicated concentrations of compound G and commercial antibiotics for 24 hours at 35° C. At indicated time points samples were removed for determination of viable CFU counts. Results are plotted as log CFU/ml vs. time.

Compound: Cc1c(CN(C)C(=O)/C=C/c2cnc3c(c2)CCC(=O)N3)oc2ccccc12 [Compound G, (E)-N-methyl-N-(3-methylbenzofuran-2-ylmethyl)-3-(7-oxo-5,6,7,8-tetrahydro-1,8-naphthyridin-3-yl)acrylamide]
- FIC Index (S. aureus 29213; with Cefuroxime): 0.8
- FIC Index (S. aureus 29213; with Cloxacillin): 2
- FIC Index (S. aureus 29213; with Erythromycin): 2
- FIC Index (S. aureus 29213; with Gentamcin): 0.3
- FIC Index (S. aureus 29213; with Levofloxacin): 1
- FIC Index (S. aureus 29213; with Linezolid): 0.5
- FIC Index (S. aureus 29213; with Nafcillin): 0.8
- FIC Index (S. aureus 29213; with Rifampicin): 0.8
- FIC Index (S. aureus 29213; with Tetracycline): 2
- FIC Index (S. aureus 29213; with Vancomycin): 1
- FIC Index (S. aureus 43300; with Cefuroxime): 0.5
- FIC Index (S. aureus 43300; with Cloxacillin): 0.75
- FIC Index (S. aureus 43300; with Gentamcin): 0.4
- FIC Index (S. aureus 43300; with Levofloxacin): 2
- FIC Index (S. aureus 43300; with Linezolid): 0.5
- FIC Index (S. aureus 43300; with Nafcillin): 0.7
- FIC Index (S. aureus 43300; with Rifampicin): 0.75
- FIC Index (S. aureus 43300; with Tetracycline): 1
- FIC Index (S. aureus 43300; with Vancomycin): 0.75
- FIC (S. pyogenes SPY_20015): <2
- FIC (S. pyogenes SPY_20061; compound G with Ceftriaxone): <2
- FIC (S. pyogenes SPY_20061; compound G with Gatifloxacin): <2
- logCFU/ml at Time (hr): 0 (S. pneumoniae 22257; Compound G 0.03 ug/ml): 6.41 logCFU/ml and 6.20 logCFU/ml
- logCFU/ml at Time (hr): 3 (S. pneumoniae 22257; Compound G 0.03 ug/ml): 8.31 logCFU/ml and 8.15 logCFU/ml
- logCFU/ml at Time (hr): 6 (S. pneumoniae 22257; Compound G 0.03 ug/ml): 9.23 logCFU/ml and 9.35 logCFU/ml
- logCFU/ml at Time (hr): 8 (S. pneumoniae 22257; Compound G 0.03 ug/ml): 9.32 logCFU/ml
- logCFU/ml at Time (hr): 24 (S. pneumoniae 22257; Compound G 0.03 ug/ml): 9.68 logCFU/ml and 9.65 logCFU/ml
- ΔlogCFU/ml (24-0 hr) (S. pneumoniae 22257; Compound G 0.03 ug/ml): 3.26 logCFU/ml and 3.45 logCFU/ml
- logCFU/ml at Time (hr): 0 (S. pneumoniae 22257; Compound G 1 ug/ml): 6.43 logCFU/ml and 6.30 logCFU/ml
- logCFU/ml at Time (hr): 3 (S. pneumoniae 22257; Compound G 1 ug/ml): 8.30 logCFU/ml and 8.17 logCFU/ml
- logCFU/ml at Time (hr): 6 (S. pneumoniae 22257; Compound G 1 ug/ml): 9.33 logCFU/ml and 9.20 logCFU/ml
- logCFU/ml at Time (hr): 8 (S. pneumoniae 22257; Compound G 1 ug/ml): 9.47 logCFU/ml and 9.41 logCFU/ml
- logCFU/ml at Time (hr): 24 (S. pneumoniae 22257; Compound G 1 ug/ml): 9.68 logCFU/ml and 9.71 logCFU/ml
- ΔlogCFU/ml (24-0 hr) (S. pneumoniae 22257; Compound G 1 ug/ml): 3.25 logCFU/ml and 3.40 logCFU/ml
- logCFU/ml at Time (hr): 0 (E. faecalis A6221420; Compound G 0.03 ug/ml): 5.10 logCFU/ml
- logCFU/ml at Time (hr): 2 (E. faecalis A6221420; Compound G 0.03 ug/ml): 6.03 logCFU/ml
- logCFU/ml at Time (hr): 4 (E. faecalis A6221420; Compound G 0.03 ug/ml): 6.42 logCFU/ml
- logCFU/ml at Time (hr): 8 (E. faecalis A6221420; Compound G 0.03 ug/ml): 9.88 logCFU/ml
- logCFU/ml at Time (hr): 24 (E. faecalis A6221420; Compound G 0.03 ug/ml): 9.91 logCFU/ml
- ΔlogCFU/ml (24-0 hr) (E. faecalis A6221420; Compound G 0.03 ug/ml): 4.81 logCFU/ml
- logCFU/ml at Time (hr): 0 (E. faecalis A6221420; Compound G 1 ug/ml): 5.12 logCFU/ml
- logCFU/ml at Time (hr): 2 (E. faecalis A6221420; Compound G 1 ug/ml): 5.93 logCFU/ml
- logCFU/ml at Time (hr): 4 (E. faecalis A6221420; Compound G 1 ug/ml): 6.53 logCFU/ml
- logCFU/ml at Time (hr): 8 (E. faecalis A6221420; Compound G 1 ug/ml): 9.76 logCFU/ml
- logCFU/ml at Time (hr): 24 (E. faecalis A6221420; Compound G 1 ug/ml): 9.91 logCFU/ml
- ΔlogCFU/ml (24-0 hr) (E. faecalis A6221420; Compound G 1 ug/ml): 4.79 logCFU/ml
- logCFU/ml at Time (hr): 0 (S. pneumoniae 22425; Compound G 0.03 ug/ml): 5.20 logCFU/ml
- logCFU/ml at Time (hr): 2 (S. pneumoniae 22425; Compound G 0.03 ug/ml): 5.63 logCFU/ml
- logCFU/ml at Time (hr): 6 (S. pneumoniae 22425; Compound G 0.03 ug/ml): 7.25 logCFU/ml
- logCFU/ml at Time (hr): 24 (S. pneumoniae 22425; Compound G 0.03 ug/ml): 7.61 logCFU/ml
- ΔlogCFU/ml (24-0 hr) (S. pneumoniae 22425; Compound G 0.03 ug/ml): 2.41 logCFU/ml
- logCFU/ml at Time (hr): 0 (S. pneumoniae 22425; Compound G 1 ug/ml): 5.12 logCFU/ml
- logCFU/ml at Time (hr): 2 (S. pneumoniae 22425; Compound G 1 ug/ml): 5.61 logCFU/ml
- logCFU/ml at Time (hr): 6 (S. pneumoniae 22425; Compound G 1 ug/ml): 7.18 logCFU/ml
- logCFU/ml at Time (hr): 24 (S. pneumoniae 22425; Compound G 1 ug/ml): 7.58 logCFU/ml
- ΔlogCFU/ml (24-0 hr) (S. pneumoniae 22425; Compound G 1 ug/ml): 2.45 logCFU/ml
- antagonism in compound G combinations [1]: did not show antagonism
- activity against S. pneumoniae (time-kill) [2]: no activity
